Results published in US10961238B2, “Modulators of hedgehog (Hh) signaling pathway” (E-THERAPEUTICS PLC, priority 2016, dated 2021).
pIC50: −log10 of the molar value.

Tests used:
[1] = system: SMO L416F mutant cell line; assay: C3H10T1/2 cell differentiation assay in SMO L416F mutant cell line versus wild type; type: cell-based, mouse; conditions: SMO L416F mutant cell line compared to the wild type, C3H10T1/2 cell differentiation assay
Source text: FIG. 1 is a graph of the percent inhibition of C3H10T1/2 cell differentiation of vismodegib compared to compound of the invention (compound number 174), in wild type versus SMO L416F mutant cell line.
Loss of Potency in C3H10T1/2 Cell Differentiation Assay Associated with Presence of SMO L416F Mutation.
Table 3 below details the number of fold reduction in potency of a range of compounds of the invention when applied to the SMO L416F mutant cell line compared to the wild type. SMO mutation has been described in the literature (Pricl, Sabrina, et al.) as a key mutation causative of vismodegib resistance in the clinic by interfering with drug binding.

C3H10T1/2 cells = assay: C3H assay: differentiation of C3H10T1/2 cells by mSHH, measurement of alkaline phosphatase; type: cell-based, mouse; conditions: Mus musculus, C3H 10T1/2; C3H10T1/2 cells stimulated with mSHH for 72 hours; alkaline phosphatase activity; read-out: IC50 Ranges
SMO = biological target: T1, SMO (Homo sapiens, UniProt Q99835); assay: Smoothened (SMO) binding fluorescence polarisation assay (BODIPY-cyclopamine competition); conditions: SMO binding FP assay versus C3H10T1/2 cellular assay
T1 construct: expressed in transfected cells; host or cells: HEK293
Protocol: Standard Protocol for Smoothened (SMO) Binding Fluorescence Polarisation Assay.
The assay measures the ability of the test compounds to compete with a fluorescently-labelled version of the known ligand, cyclopamine, for binding to SMO. The fluorescent tag used is BODIPY (boron dipyrromethene).
An aliquot of a membrane preparation from a SMO-over-expressing HEK293 cell line is diluted to protein concentration of 0.117 mg/ml in assay buffer (25 mM HEPES, 2 mM EDTA, 0.05% γ-globulin, 0.01% pluronic acid pH7.4, plus protease Inhibitor cocktail). 8.5 μl of the membrane suspension is added to each well of a black, low volume 384 well microtitre plate.
Test compounds are added in a seven point dilution range to the wells containing the membrane preparation. The final DMSO solvent concentration in the wells is maintained at 0.3%. 6.5 μl of a 6.9 nM BODIPY-cyclopamine solution is added to each of the wells (final assay concentration 3 nM).
The plate is sealed and stored in the dark at room temperature for 24 hours prior to measurement of the fluorescence polarisation signal on a Perkin Elmer Envision multi-label reader.
Table 4 below details the ratio of SMO binding compared to the potency in the C3H10T1/2 cellular assay. The small ratio between SMO binding and potency for vismodegib is considered to be reflective of the fact vismodegib acts mainly through inhibition of the SMO protein. The larger ratios for the compound of the invention are considered to be reflective of alternate actions outside of direct SMO inhibition.

T1 sequence (Q99835 28-787): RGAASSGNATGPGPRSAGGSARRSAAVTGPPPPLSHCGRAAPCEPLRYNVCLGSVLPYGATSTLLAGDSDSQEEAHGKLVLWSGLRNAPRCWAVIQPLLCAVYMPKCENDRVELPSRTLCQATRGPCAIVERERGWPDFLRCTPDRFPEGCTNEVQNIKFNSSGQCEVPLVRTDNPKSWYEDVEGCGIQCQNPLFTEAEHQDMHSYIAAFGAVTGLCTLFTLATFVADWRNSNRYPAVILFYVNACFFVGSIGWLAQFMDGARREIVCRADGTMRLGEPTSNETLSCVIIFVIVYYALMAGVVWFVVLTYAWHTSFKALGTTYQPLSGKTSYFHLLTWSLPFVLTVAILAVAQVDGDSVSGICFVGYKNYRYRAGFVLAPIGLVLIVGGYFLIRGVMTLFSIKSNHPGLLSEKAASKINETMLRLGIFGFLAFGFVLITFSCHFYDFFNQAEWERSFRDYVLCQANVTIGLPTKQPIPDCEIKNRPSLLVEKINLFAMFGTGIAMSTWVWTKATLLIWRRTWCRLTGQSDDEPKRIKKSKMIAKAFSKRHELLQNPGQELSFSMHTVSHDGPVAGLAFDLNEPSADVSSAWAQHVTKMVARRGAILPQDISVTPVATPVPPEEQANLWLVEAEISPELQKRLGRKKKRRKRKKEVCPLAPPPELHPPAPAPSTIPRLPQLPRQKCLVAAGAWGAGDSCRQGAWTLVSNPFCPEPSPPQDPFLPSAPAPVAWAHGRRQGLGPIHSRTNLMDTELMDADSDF

Structure (SMILES) | Fold reduction in potency in SMO L416F mutant cell line [1] | pIC50 (C3H10T1/2 cells) | Ratio of potency in SMO binding assay to potency in C3H10T1/2 cellular assay (SMO)
CC(C)C(CO)NC(=O)N1CC(S(=O)(=O)N2CCC(c3c[nH]c4ncccc34)CC2)C1 (racemic) [Compound 26, N-[1-(Hydroxymethyl)-2-methyl-propyl]-3-[[4-(1H-pyrrolo[2,3-b]pyridin-3-yl)-1-piperidyl]sulfonyl]azetidine-1-carboxamide] | 67 | 7.00 to 8.00 | 
O=C(OC1CCCCC1)N1CC(S(=O)(=O)N2CCC(c3c[nH]c4ncccc34)CC2)C1 [Compound 75, cyclohexyl 3-[4-(1H-pyrrolo[2,3-b]pyridin-3-yl)piperidin-1-yl]sulfonylaze-tidine-1-carboxylate] | 60 | 7.00 to 8.00 | 
O=C(NCCc1cccs1)N1CC(S(=O)(=O)N2CCC(c3c[nH]c4ncccc34)CC2)C1 [Compound 84, 3-[4-(1H-pyrrolo[2,3-b]pyridin-3-yl)piperidin-1-yl]sulfonyl-N-(2-thiophen-2-ylethyl)azetidine-1-carboxamide] | 50 | 7.00 to 8.00 | 
Cc1noc(C)c1CNC(=O)C1CC(S(=O)(=O)N2CCC(c3c[nH]c4ncccc34)CC2)C1 (stereo not shown) [Compound 284, N-[(3,5-dimethyl-1,2-oxazol-4-yl)methyl]-3-[4-(1H-pyrrolo [2,3-b]pyridin-3-yl)piperidin-1-yl]sulfonylcycl obutane-1-carboxamide] |  | 6.00 to 7.00 | 2.3
Cc1noc(C)c1NC(=O)C1CC(S(=O)(=O)N2CCC(c3c[nH]c4ncccc34)CC2)C1 (stereo not shown) [Compound 285, N-(3,5-dimethyl-1,2-oxazol-4-yl)-3-[4-(1H-pyrrolo [2,3-b]pyridin-3-yl)piperidin-1-yl]sulfonylcycl obutane-1-carboxamide] |  | 7.00 to 8.00 | 2.9
O=C(NCCS(=O)(=O)N1CCC(c2c[nH]c3ncccc23)CC1)OC1CCCCC1 [Compound 292, cyclohexyl N-[2-[4-(1H-pyrrolo-[2,3-b]pyridin-3-yl)piperidin-1-yl]sulfonylethyl] carbamate] |  | 6.00 to 7.00 | 4.3
Cc1noc(C)c1NC(=O)N1CC(S(=O)(=O)N2CCC(c3nc4ccccc4s3)CC2)C1 [Compound 294, 3-[4-(1,3-benzothiazol-2-yl)piperidin-1-yl]sulfonyl-N-(3,5-dimethyl-1,2-oxazol-4-yl)azetidine-1-carboxamide] |  | 6.00 to 7.00 | 5.0
O=C([C@H]1C[C@@H](S(=O)(=O)N2CCC(c3c[nH]c4ncccc34)CC2)C1)N1CCOCC1 [Compound 296, cis-morpholin-4-yl-[3-[4-(1H-pyrrolo[2,3-b]pyridin-3-yl)piperidin-1-yl]sulfonylcyclobutyl] methanone] |  | 6.00 to 7.00 | 3.8
O=C(NC1(C(F)(F)F)CC1)[C@H]1C[C@H](S(=O)(=O)N2CCC(c3c[nH]c4ncccc34)CC2)C1 [Compound 298, trans-3-[4-(1H-pyrrolo[2,3-b]pyridin-3-yl)piperidin-1-yl]sulfonyl-N-[1-(trifluoromethyl)cyclopropyl] cyclobutane-1-carboxamide] |  | 6.00 to 7.00 | 4.9
O=C([C@H]1C[C@H](S(=O)(=O)N2CCC(c3c[nH]c4ncccc34)CC2)C1)N1CCOCC1 [Compound 308, trans-morpholin-4-yl-[3-[4-(1H-pyrrolo [2,3-b]pyridin-3-yl)piperidin-1-yl]sulfonyl-cyclobutyl] methanone] |  | 6.00 to 7.00 | 4.8
O=S(=O)(C1CN(CC2(C(F)(F)F)CC2)C1)N1CCC(c2c[nH]c3ncccc23)CC1 [Compound 313, 3-[1-[1-[[1-(trifluoromethyl)cyclopropyl]methyl]azetidin-3-yl]sulfonylpiperidin-4-yl]-1H-pyrrolo[2,3-b]pyridine] |  | 6.00 to 7.00 | 2.7
CC(C)(C)C(=O)CN1CC(S(=O)(=O)N2CCC(c3c[nH]c4ncccc34)CC2)C1 [Compound 314, 3,3-dimethyl-1-[3-[4-(1H-pyrrolo[2,3-b]pyridin-3-yl)piperidin-1-yl]sulfonylaze-tidin-1-yl]butan-2-one] |  | 7.00 to 8.00 | 6.7
CC(C)(C)NC(=O)N1CC(S(=O)(=O)N2CCC(c3ccc(Cl)cc3)CC2)C1 [Compound 319, N-tert-butyl-3-[4-(4-chlorophenyl)piperidin-1-yl]sulfonylaze-tidine-1-carboxamide] |  | 7.00 to 8.00 | 2.9
C[C@@H](NC(=O)N1CC(S(=O)(=O)N2CCC(c3coc4cccnc34)CC2)C1)C(F)(F)F [Compound 328, 3-(4-furo[3,2-b]pyridin-3-ylpiperidin-1-yl)sulfonyl-N-[(2R)-1,1,1-trifluoropropan-2-yl]azetidine-1-carboxamide] |  | 7.00 to 8.00 | 3.2
O=C(CC(O)(C(F)(F)F)C(F)(F)F)N1CC(S(=O)(=O)N2CCC(c3c[nH]c4ncccc34)CC2)C1 [Compound 333, 4,4,4-trifluoro-3-hydroxy-1-[3-[[4-(1H-pyrrolo[2,3-b]pyridin-3-yl)-1-piperidyl]sulfonyl]azetidin-1-yl]-3-(trifluoromethyl)butan-1-one] |  | 7.00 to 8.00 | 2.5
O=C(CC(O)(C(F)(F)F)C(F)(F)F)N1CC(S(=O)(=O)N2CCC(c3coc4cccnc34)CC2)C1 [Compound 334, 4,4,4-trifluoro-1-[3-(4-furo[3,2-b]pyridin-3-ylpiperidin-1-yl)sulfonylaze-tidin-1-yl]-3-hydroxy-3-(trifluoromethyl) butan-1-one] |  | 7.00 to 8.00 | 2.6
Cc1ccc2c(C3CCN(S(=O)(=O)C4CN(C(=O)OC(C)(C)C)C4)CC3)c[nH]c2n1 [Compound 347, tert-butyl 3-[4-(6-methyl-1H-pyrrolo [2,3-b]pyridin-3-yl)piperidin-1-yl]sulfonylaze-tidine-1-carboxylate] |  | 7.00 to 8.00 | 3.8
C[C@](O)(C(=O)N1CC(S(=O)(=O)N2CCC(c3c[nH]c4ncccc34)CC2)C1)C(F)(F)F [Compound 388, (2S)-3,3,3-trifluoro-2-hydroxy-2-methyl-1-[3-[4-(1H-pyrrolo[2,3-b]pyridin-3-yl)piperidin-1-yl]sulfonylaze-tidin-1-yl]propan-1-one] |  | 7.00 to 8.00 | 5.4
C[C@](O)(C(=O)N1CC(S(=O)(=O)N2CCC(c3coc4cccnc34)CC2)C1)C(F)(F)F [Compound 395, (2S)-3,3,3-trifluoro-1-[3-(4-furo[3,2-b]pyridin-3-ylpiperidin-1-yl)sulfonyl-azetidin-1-yl]-2-hydroxy-2-methylpropan-1-one] |  | 6.00 to 7.00 | 2.6
CC(C)(C)C(=O)CN1CC(S(=O)(=O)N2CCC(c3ccc(Cl)cc3)CC2)C1 [Compound 396, 1-[3-[4-(4-chlorophenyl)piperidin-1-yl]sulfonylaze-tidin-1-yl]-3,3-dimethylbutan-2-one] |  | 6.00 to 7.00 | 2.5
CC(C)(O)CC(=O)N1CC(S(=O)(=O)N2CCC(c3c[nH]c4ncccc34)CC2)C1 [Compound 397, 3-hydroxy-3-methyl-1-[3-[4-(1H-pyrrolo[2,3-b]pyridin-3-yl)piperidin-1-yl]sulfonylaze-tidin-1-yl]butan-1-one] |  | 6.00 to 7.00 | 3.6
O=C(CC(O)(C(F)(F)F)C(F)(F)F)N1CC(S(=O)(=O)N2CCC(c3ccncc3)CC2)C1 [Compound 401, 4,4,4-trifluoro-3-hydroxy-1-[3-(4-pyridin-4-ylpiperidin-1-yl)sulfonylaze-tidin-1-yl]-3-(trifluoromethyl) butan-1-one] |  | 6.00 to 7.00 | 3.0
CC(C)(C)OC(=O)N1CC(S(=O)(=O)N2CCC(c3ccnc4ccccc34)CC2)C1 [Compound 410, tert-butyl 3-(4-quinolin-4-ylpiperidin-1-yl)sulfonylaze-tidine-1-carboxylate] |  | 6.00 to 7.00 | 3.1
